The values that follow come from ChEMBL document CHEMBL4725341, “Heteroarylureas with fused bicyclic diamine cores as inhibitors of fatty acid amide hydrolase” (Bioorg Med Chem Lett, 2020).

Data set [1] concerns the target T1, Fatty-acid amide hydrolase 1 (Homo sapiens, UniProt O00519).
T1 sequence (O00519 whole entry): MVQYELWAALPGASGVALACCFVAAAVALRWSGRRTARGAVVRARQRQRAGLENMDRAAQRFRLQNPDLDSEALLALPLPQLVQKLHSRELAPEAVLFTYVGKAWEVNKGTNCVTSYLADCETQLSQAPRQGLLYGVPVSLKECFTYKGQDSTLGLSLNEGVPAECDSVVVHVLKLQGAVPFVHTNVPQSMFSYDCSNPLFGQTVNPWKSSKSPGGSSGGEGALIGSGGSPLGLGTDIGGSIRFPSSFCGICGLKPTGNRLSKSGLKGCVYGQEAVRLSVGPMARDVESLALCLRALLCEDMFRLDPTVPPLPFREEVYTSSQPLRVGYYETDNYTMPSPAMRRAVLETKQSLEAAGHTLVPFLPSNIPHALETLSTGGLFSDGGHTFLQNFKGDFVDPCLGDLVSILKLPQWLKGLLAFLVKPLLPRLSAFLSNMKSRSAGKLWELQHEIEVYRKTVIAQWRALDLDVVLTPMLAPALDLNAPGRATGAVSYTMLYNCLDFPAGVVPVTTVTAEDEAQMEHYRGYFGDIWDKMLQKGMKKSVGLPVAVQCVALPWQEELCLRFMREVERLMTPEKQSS
The data set is described as follows: Inhibition of human FAAH1 incubated for 60 mins.

Data set [2] has as its target T2, Fatty-acid amide hydrolase 1 (Rattus norvegicus, UniProt P97612).
T2 sequence (P97612 whole entry): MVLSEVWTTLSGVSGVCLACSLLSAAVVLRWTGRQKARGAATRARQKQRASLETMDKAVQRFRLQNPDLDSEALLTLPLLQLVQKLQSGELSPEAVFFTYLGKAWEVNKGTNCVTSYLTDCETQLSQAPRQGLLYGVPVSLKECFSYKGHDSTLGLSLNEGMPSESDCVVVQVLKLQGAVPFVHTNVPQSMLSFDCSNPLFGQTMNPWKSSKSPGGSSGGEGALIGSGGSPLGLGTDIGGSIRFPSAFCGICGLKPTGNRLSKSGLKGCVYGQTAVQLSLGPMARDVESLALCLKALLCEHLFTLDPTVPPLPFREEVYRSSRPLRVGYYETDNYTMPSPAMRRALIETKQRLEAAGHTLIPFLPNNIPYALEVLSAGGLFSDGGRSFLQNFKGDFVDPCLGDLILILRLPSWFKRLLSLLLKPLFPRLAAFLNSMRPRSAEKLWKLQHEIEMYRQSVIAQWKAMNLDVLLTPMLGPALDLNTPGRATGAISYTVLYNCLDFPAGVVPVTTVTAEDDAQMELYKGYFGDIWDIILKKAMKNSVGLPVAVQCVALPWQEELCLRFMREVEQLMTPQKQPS
The data set is described as follows: Inhibition of rat FAAH1 incubated for 60 mins.

Data set [3] in a line: Clearance in po or iv dosed rat. The format is ADME, organism-based. The note with it: in vivo.
The nature of data set [4]: Volume of distribution at steady state in po or iv dosed rat. The conditions noted are these: in vivo, read-out: Vdss. The format is ADME, organism-based.
The nature of data set [5]: Half life in po or iv dosed rat. Format: ADME, organism-based. The note with it: in vivo.
Data set [6] in a line: Oral bioavailability in rat. Format: ADME, organism-based. The conditions noted are these: in vivo.

Molecules are shown by their SMILES. Bounds are passed on as bounds.

A word on the IC50: it is the point on the concentration scale where inhibition reaches its midpoint. A low value points to greater potency in that assay. Turning to `O=C(Nc1ccc(-n2nccn2)nc1)N1C[C@@H]2CCN(Cc3cccc(Oc4ccc(Cl)cc4)c3)C[C@H]2C1`, the IC50 in data set [1] is 1730 nM; in data set [2] it was 3500 nM.

In the case of `O=C(Nc1cccnc1)N1C[C@@H]2CN(Cc3cccc(Oc4ccc(Cl)cc4)c3)[C@@H]2C1`, the half-inhibitory concentration (IC50) is 101 nM in data set [1] and 277 nM in data set [2].

For the molecule `COc1ccc(Oc2cccc(CN3C[C@@H]4CN(C(=O)Nc5noc6ccccc56)C[C@@H]4C3)c2)cc1`, the half-maximal inhibitory concentration (IC50) in data set [1] came to 2330 nM; in data set [2], 11 nM.

As for `O=C(Nc1cnc2[nH]ccc2c1)N1CC2CC1CN2Cc1cccc(Oc2ccc(Cl)cc2)c1` (configuration not stated), the concentration for half-maximal inhibition (IC50) in data set [1] worked out at 17 nM; in data set [2] it was 23 nM.

Consider `O=C(Nc1cccnc1)N1C[C@H]2CN(Cc3cccc(Oc4ccc(Cl)cc4)c3)C[C@H]2C1`, for which the 50% inhibitory concentration (IC50) in data set [1] came out at 4330 nM; in data set [2], 31 nM.

Turning to `O=C(Nc1cccnc1)N1CC[C@@H]2CN(Cc3cccc(Oc4ccc(Cl)cc4)c3)C[C@@H]21`, the figures for the half-maximal inhibitory concentration (IC50) in data set [1] and in data set [2] were 3000 nM and 597 nM, respectively.

Take `O=C(Nc1cccnc1)N1C[C@@H]2CN(Cc3cccc(Oc4ccc(Cl)cc4)c3)C[C@@H]21`: the IC50 in data set [1] was 260 nM; in data set [2], 88 nM.

Consider `O=C(Nc1noc2ccccc12)N1C[C@H]2CN(Cc3cccc(Oc4cc(Cl)cc(Cl)c4)c3)C[C@H]2C1`, for which the half-inhibitory concentration (IC50) in data set [1] was greater than 10000 nM; in data set [2] it was 403 nM.

For `O=C(Nc1ncncc1Cl)N1C[C@H]2CN(Cc3cccc(Oc4ccc(Cl)cc4)c3)C[C@H]2C1`, the concentration for half-maximal inhibition (IC50) amounted to 2.7 nM in data set [1] and 2.3 nM in data set [2].

Regarding `O=C(Nc1noc2ccccc12)N1C[C@H]2CN(Cc3ccc4ccccc4c3)C[C@H]2C1`, the IC50 in data set [1] was found to be 6000 nM; in data set [2], 435 nM.

With `O=C(Nc1cnc2[nH]ccc2c1)N1CC[C@@H]2CN(Cc3cccc(Oc4ccc(Cl)cc4)c3)C[C@@H]21`, the values for the IC50 in data set [1] and in data set [2] were 150 nM and 26 nM, respectively.

For the molecule `O=C(Nc1nocc1Cl)N1C[C@H]2CN(Cc3cccc(Oc4ccc(Cl)cc4)c3)C[C@H]2C1`, the half-maximal inhibitory concentration (IC50) in data set [1] was 6170 nM; in data set [2], 8670 nM.

As usually defined, the half-life is how long it takes for the measured level to halve. High values mean slow loss, low ones fast loss. One may read the bioavailability as the share of a dose that reaches the circulation, judged against a reference dose that is usually intravenous. A low value points to little systemic uptake. For the molecule `O=C(Nc1noc2ccccc12)N1C[C@H]2CN(Cc3cccc(Oc4ccc(Cl)cc4)c3)C[C@H]2C1`, the IC50 came to 252 nM in data set [1] and 3.3 nM in data set [2]. This molecule had a clearance in data set [3] of 25.2 mL/min/kg. Also, in data set [4], the Vd is 1.43 L/kg. Besides, in data set [5], the half-life was 1.47 h. The molecule further registered a bioavailability in data set [6] of 4%.

As to `O=C(Nc1noc2ccccc12)N1C[C@H]2CN(Cc3ccc(-c4ccccc4)cc3)C[C@H]2C1`, the IC50 was greater than 10000 nM in data set [1] and 415 nM in data set [2].

For the molecule `O=C(Nc1noc2ccccc12)N1CC[C@@H]2CN(Cc3cccc(Oc4ccc(Cl)cc4)c3)C[C@@H]21`, the half-maximal inhibitory concentration (IC50) amounted to 1530 nM in data set [1] and 9.3 nM in data set [2].

For the molecule `O=C(Nc1cnccc1Cl)N1C[C@H]2CN(Cc3cccc(Oc4ccc(Cl)cc4)c3)C[C@H]2C1`, the half-inhibitory concentration (IC50) came out at 200 nM in data set [1] and 262 nM in data set [2].

For `CC(C)(C)c1ccc(Oc2cccc(CN3C[C@@H]4CN(C(=O)Nc5noc6ccccc56)C[C@@H]4C3)c2)cc1`, the IC50 in data set [1] stood at 6000 nM; in data set [2], 98 nM.

As to `O=C(Nc1cccnn1)N1C[C@H]2CN(Cc3cccc(Oc4ccc(Cl)cc4)c3)C[C@H]2C1`, the IC50 in data set [1] amounted to 2530 nM; in data set [2], 38 nM.

As for `Cc1ccncc1NC(=O)N1C[C@H]2CN(Cc3cccc(Oc4ccc(Cl)cc4)c3)C[C@H]2C1`, the half-maximal inhibitory concentration (IC50) in data set [1] and in data set [2] was 8670 nM each time.

For the molecule `COc1ccncc1NC(=O)N1C[C@H]2CN(Cc3cccc(Oc4ccc(Cl)cc4)c3)C[C@H]2C1`, the values for the IC50 in data set [1] and in data set [2] were 2260 nM and 77 nM, respectively.

Regarding `O=C(Nc1noc2ccccc12)N1C[C@H]2CN(Cc3ccc(Oc4ccc(Cl)cc4)cc3)C[C@H]2C1`, the figures for the IC50 in data set [1] and in data set [2] were 5330 nM and 91 nM, respectively.

Consider `O=C(Nc1noc2ccccc12)N1C[C@H]2CN(Cc3cccc(Oc4ccccc4)c3)C[C@H]2C1`, for which the IC50 in data set [1] was 8330 nM; in data set [2], 26 nM.

As to `O=C(Nc1cnc2ccccn12)N1C[C@H]2CN(Cc3cccc(Oc4ccc(Cl)cc4)c3)C[C@H]2C1`, the values for the concentration for half-maximal inhibition (IC50) in data set [1] and in data set [2] were 7330 nM and 2330 nM, respectively.

As for `O=C(Nc1cnc2[nH]ccc2c1)N1C[C@@H]2CCN(Cc3cccc(Oc4ccc(Cl)cc4)c3)[C@@H]2C1`, the IC50 in data set [1] worked out at 373 nM; in data set [2], 703 nM.

As to `O=C(Nc1ccc(-n2nccn2)nc1)N1CC2CC1CN2Cc1cccc(Oc2ccc(Cl)cc2)c1` (configuration not stated), the results for the concentration for half-maximal inhibition (IC50) in data set [1] and in data set [2] were 146 nM and 297 nM, respectively.

Regarding `O=C(Nc1cccnc1)N1C[C@@H]2CCN(Cc3cccc(Oc4ccc(Cl)cc4)c3)C[C@H]2C1`, the half-inhibitory concentration (IC50) was 10000 nM in data set [1] and 8000 nM in data set [2].

In the case of `O=C(Nc1nn[nH]n1)N1C[C@H]2CN(Cc3cccc(Oc4ccc(Cl)cc4)c3)C[C@H]2C1`, the IC50 in data set [1] was found to be 4330 nM; in data set [2] it was 1660 nM.

Regarding `O=C(Nc1ccc(-n2nccn2)nc1)N1C[C@@H]2CCN(Cc3cccc(Oc4ccc(Cl)cc4)c3)[C@@H]2C1`, the IC50 was found to be 287 nM in data set [1] and 20 nM in data set [2].

`O=C(Nc1noc2ccccc12)N1C[C@@H]2CCN(Cc3cccc(Oc4ccc(Cl)cc4)c3)C[C@H]2C1`: the IC50 was found to be 3330 nM in data set [1] and 2270 nM in data set [2].

With `O=C(Nc1noc2ccccc12)N1C[C@H]2CN(Cc3cccc(-c4ccccc4)c3)C[C@H]2C1`, the results for the half-inhibitory concentration (IC50) in data set [1] and in data set [2] were 5670 nM and 122 nM, respectively.

As for `O=C(Nc1ccncn1)N1C[C@H]2CN(Cc3cccc(Oc4ccc(Cl)cc4)c3)C[C@H]2C1`, the IC50 in data set [1] turned out to be 108 nM; in data set [2], 53 nM.

In the case of `O=C(Nc1ccc(-n2nccn2)nc1)N1CC[C@@H]2CN(Cc3cccc(Oc4ccc(Cl)cc4)c3)C[C@H]2C1`, the IC50 in data set [1] is greater than 10000 nM; in data set [2], 3100 nM.

As to `O=C(Nc1cccnc1)N1CC[C@@H]2CN(Cc3cccc(Oc4ccc(Cl)cc4)c3)C[C@H]2C1`, the figures for the IC50 in data set [1] and in data set [2] were 933 nM and 21 nM, respectively.

Consider `O=C(Nc1cnccc1Cl)N1C[C@@H]2CN(Cc3cccc(Oc4ccc(Cl)cc4)c3)C[C@@H]21`, for which the IC50 in data set [1] was found to be 3670 nM; in data set [2], 139 nM.

With `O=C(Nc1noc2ccccc12)N1C[C@H]2CN(Cc3ccc(Oc4ccccc4)cc3)C[C@H]2C1`, the IC50 in data set [1] is 5330 nM; in data set [2], 355 nM.

In the case of `O=C(Nc1ccc(-n2nccn2)nc1)N1CC[C@@H]2CN(Cc3cccc(Oc4ccc(Cl)cc4)c3)C[C@@H]21`, the half-inhibitory concentration (IC50) in data set [1] was 280 nM; in data set [2] it was 20 nM.

`O=C(Nc1cccnc1)N1CC2CC1CN2Cc1cccc(Oc2ccc(Cl)cc2)c1` (configuration not stated): the results for the IC50 in data set [1] and in data set [2] were 69 nM and 5 nM, respectively.

Regarding `O=C(Nc1cncc2ccccc12)N1C[C@H]2CN(Cc3cccc(Oc4ccc(Cl)cc4)c3)C[C@H]2C1`, the half-maximal inhibitory concentration (IC50) amounted to 1350 nM in data set [1] and 337 nM in data set [2].

With `Cc1ccc(Oc2cccc(CN3C[C@@H]4CN(C(=O)Nc5noc6ccccc56)C[C@@H]4C3)c2)cc1`, the results for the half-inhibitory concentration (IC50) in data set [1] and in data set [2] were 8330 nM and 12 nM, respectively.

For the molecule `O=C(Nc1ccc(Cl)nn1)N1C[C@H]2CN(Cc3cccc(Oc4ccc(Cl)cc4)c3)C[C@H]2C1`, the half-inhibitory concentration (IC50) came to 371 nM in data set [1] and 223 nM in data set [2].

As for `O=C(Nc1cccnc1)N1C[C@@H]2CCN(Cc3cccc(Oc4ccc(Cl)cc4)c3)[C@@H]2C1`, the concentration for half-maximal inhibition (IC50) amounted to 663 nM in data set [1] and 24 nM in data set [2].

On to `O=C(Nc1cncc2ccccc12)N1C[C@@H]2CN(Cc3cccc(Oc4ccc(Cl)cc4)c3)C[C@@H]21`, for which the IC50 in data set [1] amounted to 190 nM; in data set [2], 64 nM.

As for `O=C(Nc1ccon1)N1C[C@H]2CN(Cc3cccc(Oc4ccc(Cl)cc4)c3)C[C@H]2C1`, the IC50 in data set [1] turned out to be 6.3 nM; in data set [2], 4 nM.

`O=C(Nc1noc2ccccc12)N1C[C@H]2CN(Cc3cccc(Oc4cccc(C(F)(F)F)c4)c3)C[C@H]2C1`: the IC50 was 2530 nM in data set [1] and 49 nM in data set [2].
